Laboratory results as given in patent US20110166066A1, “CATESTATIN (CST) AND ITS VARIANTS FOR TREATMENT OF CARDIOVASCULAR AND METABOLIC DISORDERS” (priority 2008, published 2011).
“Also recorded” adds a separate entry of the source. Where a name gives a salt, the structure may show the parent alone. Read-outs that look alike come from different tables or passages of the source. No end group written: not given here.

Columns and labels:
[1] = test system: WT and Chga knockout (KO) mice; test: Response to PE or SNP and baroreflex sensitivity in unconscious mice; type: in vivo; details: for Increase in SBP: 0.005 μg/g bw iv
Procedure: Unconscious mice. Surgical procedures for hemodynamic measurements: Hemodynamic evaluation in both WT and KO mice was performed under general anesthesia [ketamine (100 mg/kg) and xylazine (2.5 mg/kg)] while connected to a ventilator. LV pressure was monitored by Millar micromanometer catheter of size 1.4 French (0.46 mm; Millar Instruments, Houston, Tex.); it was inserted into the LV where phasic and mean pressure was continuously monitored (Gould, Cleveland, Ohio). A venous catheter (MicroRenathane tube MRE-033; Braintree Laboratories, Braintree, Mass.) is implanted on right femoral vein for injection of peptide and other reagents. All physiologic signals were acquired by WINDAQ (Dataq Instruments, Akron, Ohio) and analyzed by BP-Analysis software (developed for own laboratory).
Assessment of baroreflex sensitivity (BRS): BRS (in milliseconds per mmHg) was assessed by both high-pressure [phenylephrine (PE) bolus] and low-pressure [sodium nitroprusside (SNP) bolus] stimuli in unconscious mice. Although conscious animals provide optimal physiological data, a host of undesirable signals are triggered by physical activities, and sleep cycle alterations in behavioral state. Therefore, we have chosen to conduct the experiments in unconscious mice to avoid some of the pitfalls encountered in awake animals. The absolute changes of HR in response to changes in SBP induced by PE or SNP were subjected to linear regression analysis to determine BRS. To test the effect of CST on BRS in KO mice, CST was injected (40 μg/g bw iv) 30 min before the injection of PE or SNP through the catheter implanted into the femoral vein.
BRS to high-pressure stimulus. High pressure BRS was evaluated by recording diminution of HR in response to PE-induced hypertension. Changes in SBP and HR were recorded continuously for 0.5 min after a bolus injection of PE (0.005 μg/g bw iv). This dose was selected from a preliminary dose-response study (0.001-0.05 μg/g bw iv).
BRS to low-pressure stimulus. This was evaluated by recording increments in HR in response to SNP-induced fall in BP. Changes in SBP and HR were recorded continuously for 0.5 min after a bolus injection of SNP (0.05 μg/g bw iv). This dose was selected from a preliminary dose-response study (0.01-0.1 μg/g bw iv).

[2] = test system: sympathochromaffin cells; details: in vitro; cited from earlier work
[3] = test system: Langendorff perfused rat heart; test: Langendorff perfused rat heart, basal conditions: concentration-response of catestatin peptides; details: for Activity rank order / Inotropism / Lusitropism: basal conditions, Table 2
From the text: Animals-Male Wistar rats (Morini, Bologna, Italy S.P.A.) weighing 180-250 g were housed (three per cage) in a ventilated cage rack system under standard conditions. Animals had food and water access ad libitum. The investigation conforms to the Guide for the Care and Use of Laboratory Animals, according to NIH Publication No. 85-23, revised 1996. Isolated heart preparation-Rats were anesthetized with ethyl carbamate (2 g/Kg rat, i.p.), the hearts rapidly excised and then transferred in ice-cold buffered Krebs-Henseleit solution (KHs). As previously described (23), the aorta was immediately cannulated with a glass cannula and connected to Langendorff apparatus to start perfusion at constant flow-rate (12 ml/min). Briefly, the apex of the left ventricle (LV) was pierced to avoid fluid accumulation. A water-filled latex balloon, connected to a pressure transducer ([…], Inc. USA), was inserted through mitral valve into the LV allowing isovolumic contractions and continuous mechanical parameters recording. Another pressure transducer located just above the aorta recorded coronary pressure (CP). […] Hemodynamic parameters were assessed using a PowerLab data acquisition system and analysed using Chart software (both purchased by ADInstruments, Basile, Italy). […] Curve fitting was accomplished in the program Kaleidagraph (Synergy Software, Reading, Pa.). Peptide EC50 and IC50 values were interpolated as the concentration that achieved 50% stimulation and inhibition, respectively. For analysis of phosphorylated proteins, levels were quantified using Bio-Rad QuantifyOne and volumes of phosphorylated proteins were divided by the levels of non-phosphorylated proteins to calculate fold activation. Stimulation of protein activity was expressed as fold increase over vehicle-treated control. The means and S.E.M. were calculated for each treatment. Multiple comparisons were made using either one-way ANOVA followed by Bonferroni's post-hoc test or two-way ANOVA. Statistical significance was concluded at p<0.05. Statistics were computed with the program InStat (GraphPad Software, Inc., San Diego, Calif.).

[4] = test system: Langendorff perfused rat heart; test: Isoproterenol stimulated Langendorff heart preparations; details: G364S-CST 200 nM, P370L-CST 165 nM; for ISO-induced stimulation of LVP (concentration-response): ISO 0.1 nM to 1 μM, WT-CST 33 and 110 nM
[5] = test system: Langendorff perfused rat heart; test: ET-1 stimulated Langendorff heart preparations; details: for ET-1 induced positive inotropism: ET-1 1 nM, WT-CST 33 nM, P370L-CST 110 nM, G364S-CST 200 nM
Procedure: ET-1 stimulated preparations—Hearts, stabilized for 20 min with KHs, were perfused for 10 min with ET-1 (1 nM) and then washed-out with KHs. After returning to control conditions, each heart was perfused with KHs containing a single concentration of either WT-Cts (33 nM), P370L-Cts (110 nM) or G364S-Cts (200 nM) plus 1 nM ET-1 for a further 10 min.

[6] = test system: Langendorff perfused rat heart; test: Isoproterenol stimulated Langendorff heart preparations; details: for ISO stimulatory effect on LVP: measured at 5 min; for Coronary pressure (ISO alone or ISO + peptide) / Inotropism (ISO alone or ISO + peptide) / Lusitropism (ISO alone or ISO + peptide): Table 3, ISO 5 nM
Procedure: Isoproterenol stimulated preparations—Cardiac preparations were stabilized for 20 min with KHs and then perfused with 5 nM ISO for 10 min. ISO was washed-out with KHs. After returning to control conditions, each heart was perfused with KHs containing a single concentration of WT-Cts […] or G364S-Cts (200 nM) with 5 nM ISO for a further 10 min.
To further describe the antagonistic action of either WT-Cts (33 nM), P370L-Cts (110 nM) or G364S-Cts (200 nM) against ISO-dependent stimulation, dose-response curves were generated by perfusing the heart preparations with KHs enriched with increasing concentrations of ISO (0.1 nM to 1 μM) alone. These curves were then compared to those obtained by exposing other cardiac preparations to the same perfusion medium containing increasing concentrations of ISO (0.1 nM to 1 μM) plus a single concentration of either WT-Cts (33 nM) or P370L-Cts (110 nM) or G364S-Cts (200 nM).
Statistics—Data are expressed as the mean±SEM. Curve fitting was accomplished in the program Kaleidagraph (Synergy Software, Reading, Pa.). Peptide EC50 and IC50 values were interpolated as the concentration that achieved 50% stimulation and inhibition, respectively. For analysis of phosphorylated proteins, levels were quantified using Bio-Rad QuantifyOne and volumes of phosphorylated proteins were divided by the levels of non-phosphorylated proteins to calculate fold activation. Stimulation of protein activity was expressed as fold increase over vehicle-treated control. The means and S.E.M. were calculated for each treatment. Multiple comparisons were made using either one-way ANOVA followed by Bonferroni's post-hoc test or two-way ANOVA. Statistical significance was concluded at p<0.05. Statistics were computed with the program InStat (GraphPad Software, Inc., San Diego, Calif.).
To characterize the inhibitory action of either WT-CST (11, 33 or 110 nM), G364S-CST (200 nM) or P370L-CST (110 nM) toward ISO-dependent stimulation of cardiac function, heart preparations were perfused with KHs containing increasing concentrations of ISO (0.1 nM to 1 μM) either alone or in combination with one of the three CST variants.

[7] = test system: ECs; details: cited from earlier work

| Molecule | Rank order of potency, inhibition of catecholamine secretion [2] | Activity rank order [3] | Inotropism [3] | Lusitropism [3] | ISO-induced stimulation of LVP (concentration-response) [4] | ET-1 induced positive inotropism [5] | ISO induced coronary dilation ([6]; ISO 5 nM) | ISO-induced positive lusitropism ([6]; ISO 5 nM) | Rank order of potency against ISO ([6]; ISO 5 nM) | ISO stimulatory effect on LVP ([6]; ISO 5 nM) | Coronary pressure (ISO alone or ISO + peptide) [6] | Inotropism (ISO alone or ISO + peptide) [6] | Lusitropism (ISO alone or ISO + peptide) [6] | also measured |
| --- | --- | --- | --- | --- | --- | --- | --- | --- | --- | --- | --- | --- | --- | --- |
| CNC[C@H](O)c1cccc(O)c1 [PE, phenylephrine] | – | – | – | – | – | – | – | – | – | – | – | – | – | PE-induced bradycardia ([1]; KO mice): completely abolished; Increase in SBP ([1]; KO mice): 45.6 mmHg; Decrease in HR ([1]; WT mice, 0.005 μg/g bw): 26 bpm; Increase in SBP ([1]; WT mice): 34.1 mmHg |
| P370L-CST: SEQ ID NO. 3 SSMKLSFRARAYGFRGPGLQL, naturally occurring Pro370Leu variant of catestatin (listed as Homo sapiens) | Pro370Leu>wild-type (WT)>Gly364Ser>Arg374Gln; also recorded: Pro370Leu>wildtype (WT)>Gly364Ser>Arg374Gln | Activity: WT-CST > P370L-CST > G364S-CST | Negative | No effect | significantly inhibited | blocked | remaining unchanged | failed to modulate | Order of potency: WT-CST > G364S-CST > P370L-CST | abolished | No effect | Abolished | Abolished | Concentration of maximum decrease in +(LVdP/dT)max [3]: 200 nM; Concentration of maximum decrease in LVP and RPP [3]: 200 nM; Effect on −(LVdP/dT)max [3]: marked decrease; Effect on CP (coronary pressure) ([3]; basal): not accompanied by changes; Effect on HR ([3]; basal, WT-Cts significant at 33 nM): not accompanied by changes; Inotropic effect (LVP, RPP) ([3]; from 110 to 200 nM): negative inotropism; Effect on +(LVdP/dT)max ([3]; starting from 110 nM): marked decrease |
| G364S-CST: SEQ ID NO. 4 SSMKLSFRARAYSFRGPGPQL, naturally occurring Gly364Ser variant of catestatin (listed as Homo sapiens) | Pro370Leu>wild-type (WT)>Gly364Ser>Arg374Gln; also recorded: Pro370Leu>wildtype (WT)>Gly364Ser>Arg374Gln | Activity: WT-CST > P370L-CST > G364S-CST | No effect | No effect | significantly inhibited | blocked | blocked | blocked | Order of potency: WT-CST > G364S-CST > P370L-CST | abolished | Abolished | Abolished | Abolished | Other parameters tested (HR, LVP, +(LVdP/dT)max, −(LVdP/dT)max) ([3]; 11 to 200 nM): unaffected; Effect on RPP ([3]; even at 33 nM): significant increase; Block of ISO-dependent +(LVdP/dT)max ([6]; ISO 5 nM): > 100%; ISO-dependent decrease of T/−t ([6]; ISO 5 nM): blocked |
| endothelin-1 (CSCSSLMDKECVYFCHLDIIW; ends and bridges not checked; cysteine pairing not given here; UniProt P05305 53-73, looked up) [ET-1, endothelin-1, purchased from Sigma, reference compound] | – | – | – | – | – | – | – | – | – | – | – | – | – | Effect on LVP and +(LVdP/dT)max ([5]; 1 nM): increased; Effect on coronary constriction ([5]; ET-1 alone 1 and 10 nM): significant increase in coronary constriction |
| CC(C)NCC(O)c1ccc(O)c(O)c1 (centres unmarked) [ISO, Isoproterenol hydrochloride, reference compound] | – | – | – | – | – | – | – | – | – | – | Vasodilation | Positive | Positive | EC50 ([4]; Rattus norvegicus, Table 3, values match WT-CST 110 nM, read-out: EC50 (ISO on LVP, alone or + peptide) (converted)): 2.14 nM; Effect of ISO alone on LVP ([6]; 5 nM to 1 μM): increased LVP significantly; EC50 ([6]; Rattus norvegicus, ISO alone, read-out: EC50 of ISO-mediated LVP stimulation (converted)): 2.14 nM |
| vasostatin: another peptide derived from CgA, inhibited angiogenesis induced by VEGF (peptide, UniProt P10645 19-94, looked up, Vasostatin-1) Vasostatin-1: LPVNSPMNKGDTEVMKCIVEVISDTLSKPSPMPVSQECFETLRGDERILSILRHQNLLKELQDLALQGAKERAHQQ | – | – | – | – | – | – | – | – | – | – | – | – | – | Concentration at which effects were found [7]: 330 nM |
